Columns and labels:
SNB-75 = assay: panel of 60 human tumor cell lines, growth inhibition (CNS Cancer); details: SNB-75
SNB-19 = assay: as above; details: SNB-19
M14 = assay: panel of 60 human tumor cell lines, growth inhibition (Melanoma); details: M14
SF-295 = assay: panel of 60 human tumor cell lines, growth inhibition (CNS Cancer); details: SF-295
PC-3 = assay: panel of 60 human tumor cell lines, growth inhibition (Prostate Cancer); details: PC-3
A498 = assay: panel of 60 human tumor cell lines, growth inhibition (Renal Cancer); details: A498
A549/ATCC = assay: panel of 60 human tumor cell lines, growth inhibition (Non-Small Cell Lung Cancer); details: A549/ATCC
SK-MEL-28 = assay: panel of 60 human tumor cell lines, growth inhibition (Melanoma); details: SK-MEL-28
TK-10 = assay: panel of 60 human tumor cell lines, growth inhibition (Renal Cancer); details: TK-10

## C=C1C(=O)O[C@H]2[C@H]1CC/C(COC(=O)N1CCN(C)CC1)=C\CC[C@@]1(C)O[C@@H]21 [JVM 2-44]
SNB-75
  GI50: 7.65 µM
  TGI: 2.40E−5
SNB-75; Log10 Concentration −4.0
  Mean Optical Densities: 0.183
  Percent Growth: −76%
SNB-75; Log10 Concentration −5.0
  Mean Optical Densities: 1.112
  Percent Growth: 47%
SNB-75; Log10 Concentration −6.0
  Mean Optical Densities: 1.330
  Percent Growth: 76%
SNB-75; Log10 Concentration −7.0
  Mean Optical Densities: 1.274
  Percent Growth: 68%
SNB-75; Log10 Concentration −8.0
  Mean Optical Densities: 1.343
  Percent Growth: 78%
SNB-19
  GI50: 19.6 µM
  TGI: 6.35E−5
SNB-19; Log10 Concentration −4.0
  Mean Optical Densities: 0.513
  Percent Growth: −19%
SNB-19; Log10 Concentration −5.0
  Mean Optical Densities: 1.860
  Percent Growth: 79%
SNB-19; Log10 Concentration −6.0
  Mean Optical Densities: 2.030
  Percent Growth: 90%
SNB-19; Log10 Concentration −7.0
  Mean Optical Densities: 2.075
  Percent Growth: 93%
SNB-19; Log10 Concentration −8.0
  Mean Optical Densities: 2.149
  Percent Growth: 97%
M14
  GI50: 8.89 µM
  TGI: 2.58E−5
M14; Log10 Concentration −4.0
  Mean Optical Densities: 0.178
  Percent Growth: −68%
M14; Log10 Concentration −5.0
  Mean Optical Densities: 1.229
  Percent Growth: 48%
M14; Log10 Concentration −6.0
  Mean Optical Densities: 1.877
  Percent Growth: 94%
M14; Log10 Concentration −7.0
  Mean Optical Densities: 1.848
  Percent Growth: 91%
M14; Log10 Concentration −8.0
  Mean Optical Densities: 1.953
  Percent Growth: 99%
SF-295
  GI50: 70.7 µM
  TGI: >1.00E−4
SF-295; Log10 Concentration −4.0
  Mean Optical Densities: 1.767
  Percent Growth: 43%
SF-295; Log10 Concentration −5.0
  Mean Optical Densities: 2.724
  Percent Growth: 87%
SF-295; Log10 Concentration −6.0
  Mean Optical Densities: 2.913
  Percent Growth: 96%
SF-295; Log10 Concentration −7.0
  Mean Optical Densities: 2.707
  Percent Growth: 87%
SF-295; Log10 Concentration −8.0
  Mean Optical Densities: 2.920
  Percent Growth: 96%
PC-3
  GI50: 21.8 µM
  TGI: 4.89E−5
PC-3; Log10 Concentration −4.0
  Mean Optical Densities: 0.340
  Percent Growth: −44%
PC-3; Log10 Concentration −5.0
  Mean Optical Densities: 1.854
  Percent Growth: 98%
PC-3; Log10 Concentration −6.0
  Mean Optical Densities: 1.917
  Percent Growth: 103%
PC-3; Log10 Concentration −7.0
  Mean Optical Densities: 1.899
  Percent Growth: 102%
PC-3; Log10 Concentration −8.0
  Mean Optical Densities: 1.916
  Percent Growth: 103%
A498
  GI50: 10.2 µM
  TGI: 3.47E−5
A498; Log10 Concentration −4.0
  Mean Optical Densities: 0.967
  Percent Growth: −43%
A498; Log10 Concentration −5.0
  Mean Optical Densities: 2.150
  Percent Growth: 51%
A498; Log10 Concentration −6.0
  Mean Optical Densities: 2.296
  Percent Growth: 67%
A498; Log10 Concentration −7.0
  Mean Optical Densities: 2.301
  Percent Growth: 68%
A498; Log10 Concentration −8.0
  Mean Optical Densities: 2.357
  Percent Growth: 74%
A549/ATCC
  GI50: 20.5 µM
  TGI: 6.23E−5
A549/ATCC; Log10 Concentration −4.0
  Mean Optical Densities: 0.267
  Percent Growth: −21%
A549/ATCC; Log10 Concentration −5.0
  Mean Optical Densities: 1.536
  Percent Growth: 82%
A549/ATCC; Log10 Concentration −6.0
  Mean Optical Densities: 1.748
  Percent Growth: 97%
A549/ATCC; Log10 Concentration −7.0
  Mean Optical Densities: 1.802
  Percent Growth: 101%
A549/ATCC; Log10 Concentration −8.0
  Mean Optical Densities: 1.778
  Percent Growth: 99%
SK-MEL-28
  GI50: 7.03 µM
  TGI: 2.21E−5
SK-MEL-28; Log10 Concentration −4.0
  Mean Optical Densities: 0.108
  Percent Growth: −80%
SK-MEL-28; Log10 Concentration −5.0
  Mean Optical Densities: 0.950
  Percent Growth: 42%
SK-MEL-28; Log10 Concentration −6.0
  Mean Optical Densities: 1.424
  Percent Growth: 93%
SK-MEL-28; Log10 Concentration −7.0
  Mean Optical Densities: 1.424
  Percent Growth: 93%
SK-MEL-28; Log10 Concentration −8.0
  Mean Optical Densities: 1.458
  Percent Growth: 96%
TK-10
  GI50: 3.91 µM
  TGI: 1.53E−5
TK-10; Log10 Concentration −4.0
  Mean Optical Densities: 0.069
  Percent Growth: −94%
TK-10; Log10 Concentration −5.0
  Mean Optical Densities: 1.338
  Percent Growth: 21%
TK-10; Log10 Concentration −6.0
  Mean Optical Densities: 2.166
  Percent Growth: 92%
TK-10; Log10 Concentration −7.0
  Mean Optical Densities: 2.198
  Percent Growth: 95%
TK-10; Log10 Concentration −8.0
  Mean Optical Densities: 2.185
  Percent Growth: 94%

— patent US9469650B2, “Melampomagnolide B derivatives” (BOARD OF TRUSTEES OF THE UNIVERSITY OF ARKANSAS, priority 2013, dated 2016)
